Test results published in patent publication US7615361B2, “Toxicity screening methods” (Ceetox, Inc., priority 2006, dated 2009).

Columns and labels:
[1] = Cell number (propidium iodide); type: cell-based; conditions: human, read-out: Cell Number TC50; for CC50 at 72 h: SK-MEL28 cells, SK-MEL28, 72 HR, run #2
Method: Cell Proliferation: Cell proliferation in each well was measured with propidium iodide (PI). This specific nucleic acid binding dye fluoresces when intercalated within the nucleic acids. The 15 nm shift enhances PI fluorescence approximately 20 times while the excitation maxima are shifted 30-40 nm. During method development experiments, it was determined that Triton-X-100 was the best solution to permeabilize the H4IIE cells thereby allowing the PI access to intracellular RNA and DNA. Fluorescence was measured using a Packard Fusion plate reader or equivalent reader at 540 nm excitation and 610 nm emission.
Cell Proliferation: After incubation, the test compound was removed and Triton X-100 solution containing propidium iodide is added. The plate was incubated and read on a fluorescent plate reader. Data was collected as relative fluorescent units (RFU). The blank was subtracted from the final well RFU. It represents the average of the first and last columns which contain no cells on that particular plate. The controls are untreated cells allowed to grow on the same plate. The compounds are represented by several separate RFU data points for each of the tested concentrations. The percent change relative to controls was calculated by dividing the average RFU by the control cell RFU and multiplying by 100.
Dosing solutions were prepared in complete culture medium.

[2] = system: NRK cells; assay: Predicted Ctox from Tox-Panel; type: cell-based, rat
Method: (§1) Studies such as these indicate that a preferred concentration for setting Ctox is the highest concentration at which there is no observed effect on any of the indicators being measured in the cluster analysis, especially a 24-hour cluster analysis. […] It will be apparent that 24 hour assays are more time-effective, and consequently, the 24 hour NOEL/Ctox represents a preferred data point to select as Ctox in a CATS assay. It will also be apparent that, with further time studies, it may be possible to select an equally suitable Ctox at other CATS assay time points (e.g., between 24 and 72 hours, or less than 24 hours).
(§2) In certain embodiments, the predicting comprises performing concentration response analyses of measurements from at least three separate assays that are employed in the cluster analysis. For example, in the cell health cluster, such predicting will involve monitoring the concentration response effect of the compound on a first health indicator which monitors cellular replication, a second cell health indicator which monitors mitochondrial function, and a third cell health indicator which monitors membrane integrity. Of course, it is understood that fourth, fifth, sixth or more cell health indicators also may be employed. From these concentration response analyses, the highest concentration of the chemical compound at which a measurable toxic effect of the chemical compound is not observable, i.e. NOEL, is determined and the Ctox is identified as the concentration that correlates to the NOEL. In choosing the concentrations of the compound for analysis, one of skill in the art should devise a dose response regimen which is selected to provide an indication of cell health at concentrations of at least two concentration values higher than the Ctox concentration.
The third experiment was done to evaluate the specificity and selectivity of the test compound in another non-tumor cell that was derived from normal rat kidney tissue. In this experiment the test compound has no effect on cell number of acute cell death up to the 500 dilution after 6 and 24 hr of exposure (FIG. 76C and 77C). Significant effects were observed on mitochondrial markers at dilutions that dropped pH to 3.7. The bar graph in FIG. 82 summarizes these effects. […] In contrast the rat tumor cell line was sensitive to the test compound and cell death occurred at the 500 dilution and could not be attributed to low pH.

[3] = system: HUVEC; assay: Predicted Ctox from Tox-Panel; type: cell-based, human; conditions: 24 HR
Method: as §1, §2
(§3) The results are summarized in Tables 14-17 and in FIGS. 83-102. Table 14 compares the test compound TC50 values for each assay endpoint. Test compounds are rank-ordered from most to least toxic based on their TC50 values and overall shape of the response curves. The Ctox value, or estimated sustained blood concentration where toxicity would first be expected to occur in a rat 14-day repeated dose study, is also included in this table. Negative and positive controls are included with every run. Assay response is continually monitored to assure reliable results. […] Table 15 summarizes oxidative stress and apoptosis data, Table 16 summarizes the solubility data, and Table 17 provides information on interaction with PgP.
(§4) The Ctox value was developed using 24 hr in vitro (H4IIE) toxicity data and was validated by retrospectively evaluating compounds across different classes of drugs in 14-day rat studies in which compounds were administered on a daily basis and pharmacokinetic data was available. […] Thus, Ctox values are only determined for the 24 hr in vitro results. In this example, Ctox values could not be estimated due to low toxicity in most of the cell lines.

[4] = system: NHEM cells; assay: Predicted Ctox from Tox-Panel; type: cell-based, human; conditions: 24 HR
Method: as §1, §2, §3, §4

[5] = system: SK-MEL28 cells; assay: Predicted Ctox from Tox-Panel; type: cell-based, human; conditions: SK-MEL28, 24 HR
Method: as §1, §2, §3, §4

[6] = target: P-glycoprotein (PgP) (Homo sapiens, UniProt P08183); assay: P-glycoprotein (PgP) binding: MTT with and without cyclosporin A, SK-MEL28 cells; type: cell-based; parameters: SK-MEL28, human hepatocytes, HUVEC, C32, and NHEM cells were used as the test systems; endogenous in cells; host or cells: SK-MEL28 cells; conditions: SK-MEL28 24 HR; for % Control (Compound + CSA): with cyclosporin A; for % Control (Compound): without CSA
Chain of P-glycoprotein (PgP) (P08183 whole entry): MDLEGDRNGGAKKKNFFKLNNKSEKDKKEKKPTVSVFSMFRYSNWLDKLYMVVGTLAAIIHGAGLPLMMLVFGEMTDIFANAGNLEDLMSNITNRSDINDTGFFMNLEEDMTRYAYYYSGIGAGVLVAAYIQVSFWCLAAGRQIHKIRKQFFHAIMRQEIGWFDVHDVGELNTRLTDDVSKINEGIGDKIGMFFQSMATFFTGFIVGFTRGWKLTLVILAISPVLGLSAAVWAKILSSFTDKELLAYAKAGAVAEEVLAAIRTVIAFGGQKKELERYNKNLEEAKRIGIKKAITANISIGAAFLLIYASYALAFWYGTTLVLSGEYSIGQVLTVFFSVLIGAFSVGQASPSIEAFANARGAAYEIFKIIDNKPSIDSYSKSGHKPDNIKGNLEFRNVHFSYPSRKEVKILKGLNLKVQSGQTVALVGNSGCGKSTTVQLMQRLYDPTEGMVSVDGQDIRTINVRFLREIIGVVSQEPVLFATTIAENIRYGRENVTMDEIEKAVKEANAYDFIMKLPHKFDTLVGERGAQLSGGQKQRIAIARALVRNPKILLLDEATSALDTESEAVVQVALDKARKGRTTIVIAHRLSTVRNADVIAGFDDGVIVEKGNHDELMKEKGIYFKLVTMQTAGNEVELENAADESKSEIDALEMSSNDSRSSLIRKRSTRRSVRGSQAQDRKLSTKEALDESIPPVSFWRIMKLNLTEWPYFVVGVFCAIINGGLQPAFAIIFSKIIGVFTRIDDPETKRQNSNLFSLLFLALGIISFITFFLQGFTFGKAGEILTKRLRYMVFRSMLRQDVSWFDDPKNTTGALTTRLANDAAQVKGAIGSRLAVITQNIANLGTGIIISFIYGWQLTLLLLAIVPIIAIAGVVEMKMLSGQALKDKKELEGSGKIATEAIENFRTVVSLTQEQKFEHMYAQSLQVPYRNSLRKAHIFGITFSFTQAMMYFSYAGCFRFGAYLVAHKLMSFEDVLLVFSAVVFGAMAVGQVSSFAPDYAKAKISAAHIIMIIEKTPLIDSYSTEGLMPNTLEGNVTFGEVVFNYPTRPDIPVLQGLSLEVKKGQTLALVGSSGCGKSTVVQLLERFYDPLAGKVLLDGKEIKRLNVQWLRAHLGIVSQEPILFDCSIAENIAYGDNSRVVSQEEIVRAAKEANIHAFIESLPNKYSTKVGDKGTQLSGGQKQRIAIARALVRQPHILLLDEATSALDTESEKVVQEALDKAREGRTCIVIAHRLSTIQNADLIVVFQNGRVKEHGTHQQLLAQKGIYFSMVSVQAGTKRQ

| SMILES | CC50 at 72 h [1] | Predicted Ctox ([2]; 6 HR) | Predicted Ctox ([2]; 24 HR) | Predicted Ctox [3] | Predicted Ctox [4] | Predicted Ctox [5] | Predicted Ctox ([5]; run #2) | % Control (Compound + CSA) [6] | % Control (Compound) [6] | CC50 at 24 h ([1]; HUVEC) |
| --- | --- | --- | --- | --- | --- | --- | --- | --- | --- | --- |
| C=C(C)[C@H]1Cc2c(ccc3c2O[C@@H]2COc4cc(OC)c(OC)cc4[C@@H]2C3=O)O1 [ROTENONE, Rotenone] | 1000 nM | 1 µM | 1 µM | 0.1 µM | 10 µM | 1 µM | 0 µM | 117.3% | 98.2% | – |
| CC[C@@]1(O)C(=O)OCc2c1cc1n(c2=O)Cc2cc3ccccc3nc2-1 [CAMPTOTHECIN, Camptothecin] | 100 nM | 0.1 µM | 0.1 µM | 0.1 µM | 33 µM | 0.1 µM | 0.1 µM | 63.3% | 56.5% | 85000 nM |
